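Assay format: 96-well plates, 48-hour exposure. GI50 is the concentration that inhibits growth by half.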 Calls of active or inactive are those of the source. Rule as the data show it: active = GI50 up to about 1.1 µM and inactive = higher. Residues, ends and D or L forms follow the SMILES beside them. *: point of attachment. Pentanoyl = CCCCC(=O)*; Boc = CC(C)(C)OC(=O)*
Assays:
Experiment in all cases: growth of human tumour cells (NCI), 48 h
A549 = tested on: A549
ACHN = tested on: ACHN
CCRF-CEM = tested on: CCRF-CEM
COLO 205 = tested on: COLO 205
DU-145 = tested on: DU-145
HCC 2998 = tested on: HCC 2998
HCT-116 = tested on: HCT-116
KM12 = tested on: KM12
LOX IMVI = tested on: LOX IMVI
M14 = tested on: M14
MDA-MB-435 = tested on: MDA-MB-435
MOLT-4 = tested on: MOLT-4
NCI-H460 = tested on: NCI-H460
NCI/ADR-RES = tested on: NCI/ADR-RES
SF-295 = tested on: SF-295
SK-MEL-2 = tested on: SK-MEL-2
SN12C = tested on: SN12C
SW-620 = tested on: SW-620
UACC-62 = tested on: UACC-62
DLD-1 = tested on: DLD-1

Measured: GI50

NS(=O)(=O)c1ccc(NC(=O)N/N=C/c2ccccc2[N+](=O)[O-])cc1
inactive: A549 > 100 µM | ACHN 66.7 µM | CCRF-CEM 25.9 µM | COLO 205 38.4 µM | DU-145 72.3 µM | HCC 2998 33.9 µM | HCT-116 30.1 µM | KM12 36 µM | LOX IMVI 44.7 µM | M14 25.5 µM | MDA-MB-435 19 µM | MOLT-4 39.8 µM | NCI-H460 > 100 µM | NCI/ADR-RES 33.3 µM | SF-295 61.7 µM | SK-MEL-2 58.7 µM | SN12C 32.7 µM | SW-620 36.1 µM | UACC-62 75.3 µM

CC(=O)Nc1ccc(C2CC(c3ccc([N+](=O)[O-])cc3)=Nc3ccccc3S2)cc1 (stereo unspecified)
inactive: A549 20.6 µM | ACHN 16.6 µM | CCRF-CEM 13.8 µM | COLO 205 36.8 µM | DLD-1 13.3 µM | HCT-116 9.75 µM | KM12 13.9 µM | LOX IMVI 15.5 µM | M14 13.5 µM | MOLT-4 11.8 µM | NCI-H460 17.3 µM | SF-295 18.6 µM | SK-MEL-2 17.9 µM | SN12C 16.6 µM | SW-620 16.8 µM | UACC-62 15.2 µM

CCC1(N=[N+]=[N-])C(=O)c2ccccc2N(c2ccccc2)C1=O (stereo unspecified)
inactive: A549 > 100 µM | ACHN > 100 µM | CCRF-CEM > 100 µM | COLO 205 > 100 µM | DLD-1 > 100 µM | HCC 2998 > 100 µM | HCT-116 > 100 µM | KM12 > 100 µM | LOX IMVI > 100 µM | M14 > 100 µM | MOLT-4 > 100 µM | NCI-H460 > 100 µM | SF-295 > 100 µM | SK-MEL-2 > 100 µM | SN12C > 100 µM | SW-620 > 100 µM | UACC-62 > 100 µM

COC(=O)C1(C(=O)OC)CC2c3c(c4ccccc4n3C)CC(C1=O)N2Cc1ccccc1 (stereo unspecified)
inactive: A549 > 100 µM | ACHN > 100 µM | CCRF-CEM > 100 µM | COLO 205 > 100 µM | DLD-1 > 100 µM | HCC 2998 > 100 µM | HCT-116 > 100 µM | KM12 > 100 µM | LOX IMVI > 100 µM | M14 > 100 µM | MOLT-4 > 100 µM | NCI-H460 > 100 µM | SF-295 > 100 µM | SK-MEL-2 > 100 µM | SN12C > 100 µM | SW-620 > 100 µM | UACC-62 89.9 µM

Cc1[nH]c2ccccc2c1C1Cc2ccccc2N1C(=O)/C=C/C(=O)O (stereo unspecified)
inactive: A549 > 100 µM | ACHN > 100 µM | CCRF-CEM > 100 µM | COLO 205 > 100 µM | DLD-1 > 100 µM | HCC 2998 > 100 µM | HCT-116 > 100 µM | KM12 > 100 µM | LOX IMVI > 100 µM | M14 > 100 µM | MOLT-4 > 100 µM | NCI-H460 20 µM | SF-295 > 100 µM | SK-MEL-2 > 100 µM | SN12C > 100 µM | SW-620 > 100 µM | UACC-62 > 100 µM

S=C(Nc1ccccc1)N(/N=C/C=C/c1ccccc1)c1nnc(-c2ccccc2)c(-c2ccccc2)n1
inactive: A549 38.6 µM | ACHN 60.4 µM | CCRF-CEM 51.2 µM | COLO 205 > 100 µM | DLD-1 76.4 µM | HCC 2998 76.7 µM | KM12 82.4 µM | LOX IMVI 52.1 µM | M14 63.4 µM | MOLT-4 32.3 µM | NCI-H460 67.5 µM | SF-295 42.9 µM | SK-MEL-2 56.8 µM | SN12C > 100 µM | SW-620 > 100 µM | UACC-62 52.4 µM

Cn1nc(-c2ccccc2)c(C(=O)/C=C/c2ccccc2)c(N2CCOCC2)c1=O
inactive: A549 20.3 µM | ACHN 20 µM | CCRF-CEM 18.8 µM | COLO 205 19.5 µM | DLD-1 20.4 µM | HCT-116 14.4 µM | LOX IMVI 21.6 µM | M14 20.9 µM | MOLT-4 13.2 µM | NCI-H460 22.9 µM | SN12C 21.4 µM | SW-620 28.9 µM | UACC-62 19.8 µM

CCOC(=O)NC(=O)c1cn(CCN2CCN(C(=O)NCCCCCCNC(=O)N3CCN(CCn4cc(C(=O)NC(=O)OCC)c(=O)n(CCN(CC)CC)c4=O)CC3)CC2)c(=O)n(CCC(CC)CC)c1=O
inactive: A549 > 100 µM | ACHN > 100 µM | COLO 205 > 100 µM | DLD-1 > 100 µM | HCC 2998 > 100 µM | HCT-116 > 100 µM | KM12 > 100 µM | LOX IMVI > 100 µM | M14 > 100 µM | NCI-H460 > 100 µM | SF-295 > 100 µM | SK-MEL-2 > 100 µM | SN12C > 100 µM | SW-620 > 100 µM | UACC-62 > 100 µM

O=c1c2cc(-c3ccccc3)sc2nc2sc(-c3ccccc3)nn12
inactive: A549 > 100 µM | CCRF-CEM > 100 µM | COLO 205 > 100 µM | DLD-1 > 100 µM | HCT-116 > 100 µM | KM12 > 100 µM | LOX IMVI > 100 µM | M14 > 100 µM | MOLT-4 > 100 µM | NCI-H460 > 100 µM | SF-295 > 100 µM | SK-MEL-2 > 100 µM | SN12C > 100 µM | SW-620 > 100 µM | UACC-62 > 100 µM

O=C(O)C(=O)/C=C\c1ccc(Cl)cc1
inactive: A549 > 100 µM | ACHN > 100 µM | CCRF-CEM > 100 µM | COLO 205 > 100 µM | DLD-1 > 100 µM | HCC 2998 > 100 µM | HCT-116 > 100 µM | KM12 > 100 µM | LOX IMVI > 100 µM | M14 > 100 µM | MOLT-4 > 100 µM | NCI-H460 > 100 µM | SF-295 > 100 µM | SK-MEL-2 > 100 µM | SN12C > 100 µM | SW-620 10.6 µM | UACC-62 > 100 µM

OC1c2ccccc2C2C(O)c3ccccc3C12 (stereo unspecified)
inactive: A549 > 100 µM | ACHN > 100 µM | CCRF-CEM > 100 µM | COLO 205 > 100 µM | DLD-1 > 100 µM | HCC 2998 > 100 µM | KM12 > 100 µM | LOX IMVI > 100 µM | M14 > 100 µM | MOLT-4 > 100 µM | NCI-H460 > 100 µM | SF-295 > 100 µM | SK-MEL-2 > 100 µM | SN12C > 100 µM | SW-620 > 100 µM | UACC-62 > 100 µM

COc1cc(/C=N/N=C(\N)NO)c([N+](=O)[O-])cc1OC
inactive: A549 26.3 µM | ACHN 14.8 µM | CCRF-CEM 41.6 µM | COLO 205 36.1 µM | DLD-1 56 µM | HCC 2998 24.2 µM | HCT-116 28.6 µM | KM12 44.4 µM | LOX IMVI 24.2 µM | M14 41.1 µM | MOLT-4 27.1 µM | NCI-H460 12.6 µM | SF-295 30.6 µM | SK-MEL-2 26.5 µM | SN12C 27 µM | SW-620 47.9 µM | UACC-62 20.6 µM

N#Cc1c(N)oc2cc3c(C#N)c(N)oc3cc12
inactive: A549 > 100 µM | ACHN > 100 µM | CCRF-CEM > 100 µM | COLO 205 > 100 µM | DLD-1 > 100 µM | HCC 2998 > 100 µM | KM12 > 100 µM | LOX IMVI > 100 µM | M14 > 100 µM | MOLT-4 > 100 µM | NCI-H460 > 100 µM | SF-295 > 100 µM | SK-MEL-2 > 100 µM | SN12C > 100 µM | SW-620 > 100 µM | UACC-62 > 100 µM

O=C1C2C3C=C4c5ccccc5N(c5ccccc5)C4(C2C(=O)N1c1ccc([N+](=O)[O-])cc1)[C@H]1C(=O)N(c2ccc([N+](=O)[O-])cc2)C(=O)[C@@H]31 (stereo partly specified)
inactive: A549 > 100 µM | ACHN > 100 µM | CCRF-CEM > 100 µM | COLO 205 > 100 µM | DLD-1 > 100 µM | HCC 2998 > 100 µM | HCT-116 > 100 µM | KM12 > 100 µM | LOX IMVI > 100 µM | M14 > 100 µM | MOLT-4 > 100 µM | NCI-H460 > 100 µM | SF-295 > 100 µM | SK-MEL-2 > 100 µM | SN12C > 100 µM | SW-620 > 100 µM | UACC-62 > 100 µM

CCCCC(=O)Oc1ccc(CC(NC(=O)OC(C)(C)C)C(=O)NC(C)C(=O)NC(Cc2ccccc2)C(=O)NCC(N)=O)cc1 (stereo unspecified) (Boc-Y(Pentanoyl)AFG-NH2; configuration not given here)
inactive: A549 > 100 µM | ACHN > 100 µM | CCRF-CEM 40.6 µM | COLO 205 19.6 µM | DU-145 > 100 µM | HCC 2998 20.6 µM | HCT-116 21.4 µM | KM12 23.7 µM | LOX IMVI 16.1 µM | M14 36.7 µM | MDA-MB-435 20 µM | MOLT-4 24.3 µM | NCI-H460 31.7 µM | NCI/ADR-RES > 100 µM | SF-295 63.8 µM | SK-MEL-2 20.7 µM | SN12C 32.3 µM | SW-620 44.8 µM | UACC-62 20.5 µM

Cc1ccc(O)cc1.Cc1cccc(O)c1.Cc1ccccc1O [CRESOL]
inactive: A549 > 100 µM | ACHN > 100 µM | CCRF-CEM 18.7 µM | COLO 205 > 100 µM | DU-145 > 100 µM | HCC 2998 > 100 µM | HCT-116 > 100 µM | KM12 > 100 µM | LOX IMVI > 100 µM | M14 > 100 µM | MDA-MB-435 > 100 µM | MOLT-4 88.7 µM | NCI-H460 > 100 µM | NCI/ADR-RES > 100 µM | SF-295 > 100 µM | SK-MEL-2 > 100 µM | SN12C > 100 µM | SW-620 > 100 µM | UACC-62 88.3 µM

Source: ChEMBL document CHEMBL1201862, “PubChem BioAssay data set” (2004)
